Results reported in publication PMC7413516, “Antidepressant-like activity and safety profile evaluation of 1H-imidazo[2,1-f]purine-2,4(3H,8H)-dione derivatives as 5-HT1A receptor partial agonists” (PLoS ONE, 2020).
Several values for one entry are separate records, joined by “and”; a condition that tells them apart may be missing. Equal values may be shown once.

Key:
normotensive rats = test: Blood pressure measurement in normotensive anesthetized rats; type: in vivo, Wistar rats; conditions: for DBP Mean / SBP Mean: group mean; for DBP / SBP: individual rat
Experimental: Male Wistar normotensive rats were anesthetized with thiopental (50–75 mg/kg, i.p.). The right carotid artery was cannulated with a polyethylene tube filled with heparin in saline to facilitate pressure measurement using the Datamax apparatus (Columbus Instruments, Columbus, Ohio, USA). The studied compounds were administered after a 15-min stabilization period.

[1] = parameters: method as in PMID 27353547; conditions: ref [8]; cited from earlier work
[2] = target: T1, human serotonin 5-HT1A receptor (Homo sapiens, UniProt P08908); test: ERK1/2 phosphorylation (SureFire Alpha LISA, CHO-K1 5HT1AR cells)
T1 sequence (P08908 1-422): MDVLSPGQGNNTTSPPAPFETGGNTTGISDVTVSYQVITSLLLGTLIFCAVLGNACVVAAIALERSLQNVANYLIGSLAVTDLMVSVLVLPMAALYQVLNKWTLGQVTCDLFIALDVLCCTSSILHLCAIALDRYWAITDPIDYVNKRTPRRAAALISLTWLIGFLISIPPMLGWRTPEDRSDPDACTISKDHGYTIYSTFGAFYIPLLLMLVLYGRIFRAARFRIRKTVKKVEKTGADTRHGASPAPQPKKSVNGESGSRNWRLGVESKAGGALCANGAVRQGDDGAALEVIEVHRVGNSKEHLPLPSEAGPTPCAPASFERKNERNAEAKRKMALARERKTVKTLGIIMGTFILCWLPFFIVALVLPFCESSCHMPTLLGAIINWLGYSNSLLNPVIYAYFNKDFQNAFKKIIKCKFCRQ
Experimental: CHO-K1 cell line transfected with 5-HT1A receptor, were commercially obtained from Perkin Elmer (Cat. No. ES-310-C, Lot Number M2W-C1). Cells were cultured according to manufacturer’s instruction. […] Geneticin-resistant clones were obtained by limit dilution and compared for receptor expression levels using a radioligand binding assay. The clone with the highest receptor expression level was selected for characterization in binding and functional assays. […] Corresponding Protein Sequence: Identical to GenBank NP_000515.2. Receptor expression level (BMAX): Estimated to be 3.7 ± 2.3 pmol/mg protein, using [3H] […] This cell line tested negative for mycoplasma.

[3] = target: T2, muscarinic M3 receptor (M3R) (Cavia porcellus, UniProt H0W1Z3); test: Smooth muscle relaxant assay: carbachol-induced contraction of isolated guinea pig ileum; conditions: isolated guinea pig small intestine, carbachol 100 μM
T2 construct: from tissue; host or cells: isolated guinea pig ileum
Experimental: The experiment was carried out according to the method described previously. Male guinea pigs were sacrificed by cervical dislocation. The ileum was rapidly removed, rinsed, and cut into segments of 1.5–2.0 cm length. The tissues were mounted on a jacketed 20 mL organ bath (Tissue Organ Bath System; 750 TOBS, DMT, Denmark) filled with Krebs’s solution (NaCl 120 mM, KCl 5.6 mM, MgCl2 2.2 mM, CaCl2 2.4 mM, NaHCO3 19 mM, glucose 10 mM). The bath was aerated with 95 % O2/5 % CO2 and heated at 37°C. During the 60-min incubation period, the organ was rinsed 4 times with fresh Krebs’s buffer, and the tissues were also pre-stimulated by 60 mM KCl solution. The submaximal contraction induced by histamine (Sigma Aldrich) (2 μM) and carbachol (Sigma Aldrich) (100 μM) was evaluated in the presence and absence of the tested compounds. Amplitudes of contraction values were measured in 4 independent experiments.

T2 sequence (H0W1Z3 1-590): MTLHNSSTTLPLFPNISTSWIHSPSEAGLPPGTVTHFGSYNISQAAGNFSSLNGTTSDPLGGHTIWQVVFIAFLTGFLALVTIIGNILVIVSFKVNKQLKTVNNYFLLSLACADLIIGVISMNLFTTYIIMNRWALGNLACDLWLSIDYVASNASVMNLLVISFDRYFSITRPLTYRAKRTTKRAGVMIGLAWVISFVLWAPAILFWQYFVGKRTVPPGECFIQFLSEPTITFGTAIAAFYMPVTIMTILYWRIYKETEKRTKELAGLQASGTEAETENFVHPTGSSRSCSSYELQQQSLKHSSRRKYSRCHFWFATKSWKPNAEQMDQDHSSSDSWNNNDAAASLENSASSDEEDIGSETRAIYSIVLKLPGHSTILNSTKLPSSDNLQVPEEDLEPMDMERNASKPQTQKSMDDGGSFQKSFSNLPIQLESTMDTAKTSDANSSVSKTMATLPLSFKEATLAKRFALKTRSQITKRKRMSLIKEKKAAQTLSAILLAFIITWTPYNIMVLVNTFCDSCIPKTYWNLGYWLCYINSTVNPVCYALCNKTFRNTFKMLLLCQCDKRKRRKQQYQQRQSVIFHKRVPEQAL

EC50 [2]: 1.15 nM
Emax ([2]; CHO-K1, read-out: Emax (%) ± SEM, agonist mode): 76 ± 1.3%
decreased efficacy as compared to 5-HT ([2]; p-ERK1/2): 1.3 fold
increased potency as compared to 5-HT ([2]; p-ERK1/2): 9.1 fold
inhibition at 1 µM [3]: 0.17%
SMILES: Cn1c(=O)c2c(nc3n(CCCCN4CCN(c5cccc(C(F)(F)F)c5)CC4)ccn23)n(C)c1=O [AZ-861, 1,3-dimethyl-8-(4-(4-(3-(trifluoromethyl)phenyl)piperazin-1-yl)butyl)-1H-imidazo[2,1-f]purine-2,4(3H,8H)-dione]
effect on arterial pressure (normotensive rats; 10 mg/kg): did not significantly affect the arterial pressure
DBP Mean (normotensive rats; time 0 min): 86.8 mmHg
SBP Mean (normotensive rats; time 0 min): 124.2 mmHg
DBP (normotensive rats; time 0 min): 74 mmHg and 91 mmHg and 79 mmHg and 94 mmHg and 89 mmHg
SBP (normotensive rats; time 0 min): 113 mmHg and 124 mmHg and 105 mmHg and 134 mmHg and 135 mmHg
DBP Mean (normotensive rats; time 5 min): 87.2 mmHg
SBP Mean (normotensive rats; time 5 min): 122.2 mmHg
DBP (normotensive rats; time 5 min): 91 mmHg and 76 mmHg and 84 mmHg and 93 mmHg and 98 mmHg and 81 mmHg
SBP (normotensive rats; time 5 min): 122 mmHg and 101 mmHg and 119 mmHg and 139 mmHg and 138 mmHg and 114 mmHg
DBP Mean (normotensive rats; time 10 min): 86.8 mmHg
SBP Mean (normotensive rats; time 10 min): 122.3 mmHg
DBP (normotensive rats; time 10 min): 90 mmHg and 76 mmHg and 87 mmHg and 98 mmHg and 80 mmHg
SBP (normotensive rats; time 10 min): 120 mmHg and 102 mmHg and 124 mmHg and 139 mmHg and 136 mmHg and 113 mmHg
DBP Mean (normotensive rats; time 15 min): 86.2 mmHg
SBP Mean (normotensive rats; time 15 min): 123.3 mmHg
DBP (normotensive rats; time 15 min): 90 mmHg and 77 mmHg and 89 mmHg and 94 mmHg
SBP (normotensive rats; time 15 min): 120 mmHg and 103 mmHg and 137 mmHg and 138 mmHg and 131 mmHg and 111 mmHg
DBP Mean (normotensive rats; time 20 min): 85.8 mmHg
SBP Mean (normotensive rats; time 20 min): 121.8 mmHg
DBP (normotensive rats; time 20 min): 89 mmHg and 76 mmHg and 91 mmHg and 87 mmHg and 94 mmHg
SBP (normotensive rats; time 20 min): 118 mmHg and 100 mmHg and 138 mmHg and 139 mmHg and 128 mmHg and 109 mmHg
DBP Mean (normotensive rats; time 30 min): 86.5 mmHg
SBP Mean (normotensive rats; time 30 min): 124.2 mmHg
DBP (normotensive rats; time 30 min): 88 mmHg and 77 mmHg and 93 mmHg and 89 mmHg and 94 mmHg and 74 mmHg
SBP (normotensive rats; time 30 min): 119 mmHg and 101 mmHg and 136 mmHg and 139 mmHg and 128 mmHg and 108 mmHg
DBP Mean (normotensive rats; time 40 min): 85.5 mmHg
SBP Mean (normotensive rats; time 40 min): 122.0 mmHg
DBP (normotensive rats; time 40 min): 88 mmHg and 76 mmHg and 92 mmHg and 95 mmHg and 75 mmHg
SBP (normotensive rats; time 40 min): 122 mmHg and 106 mmHg and 134 mmHg and 136 mmHg and 128 mmHg and 108 mmHg
DBP Mean (normotensive rats; time 50 min): 85.7 mmHg
SBP Mean (normotensive rats; time 50 min): 122.3 mmHg
DBP (normotensive rats; time 50 min): 96 mmHg and 81 mmHg and 89 mmHg and 84 mmHg and 93 mmHg and 77 mmHg
SBP (normotensive rats; time 50 min): 134 mmHg and 110 mmHg and 130 mmHg and 135 mmHg and 125 mmHg
DBP Mean (normotensive rats; time 60 min): 86.7 mmHg
SBP Mean (normotensive rats; time 60 min): 124.0 mmHg
DBP (normotensive rats; time 60 min): 98 mmHg and 83 mmHg and 88 mmHg and 82 mmHg and 93 mmHg and 75 mmHg
SBP (normotensive rats; time 60 min): 135 mmHg and 112 mmHg and 129 mmHg and 126 mmHg and 108 mmHg
DBP Mean (normotensive rats; time 70 min): 86.3 mmHg
SBP Mean (normotensive rats; time 70 min): 123.7 mmHg
DBP (normotensive rats; time 70 min): 96 mmHg and 86 mmHg and 80 mmHg and 93 mmHg and 77 mmHg
SBP (normotensive rats; time 70 min): 134 mmHg and 115 mmHg and 127 mmHg and 128 mmHg and 125 mmHg and 113 mmHg
DBP Mean (normotensive rats; time 80 min): 86.8 mmHg
SBP Mean (normotensive rats; time 80 min): 124.5 mmHg
DBP (normotensive rats; time 80 min): 97 mmHg and 87 mmHg and 86 mmHg and 82 mmHg and 93 mmHg and 76 mmHg
SBP (normotensive rats; time 80 min): 134 mmHg and 115 mmHg and 126 mmHg and 131 mmHg and 125 mmHg and 116 mmHg
estimated log p [1]: 5.75
